Reference: US7687478B2, “Disialoundecasaccharide chain asparagine/fatty acid amide and medical drug containing the same” (priority 2003, dated 2010)

System: influenza virus A/New Caledonia/20/99 (H1N1) (hemagglutinin)
Test: Influenza virus (hemagglutinin) inhibiting activity with fowl blood cells
Assay type: biochemical
Settings: A/New Caledonia/20/99 (H1N1) HA split fractions; 0.5% fowl hematid; 4° C., 60 minutes

Substance	amount of derivative at which influenza virus (hemagglutinin) inhibiting activity was exhibited
Asparagine-linked Disialoundecaoligosaccharide-behenic Acid Amide [derivative 6]	37.5 µmol
Asparagine-linked Disialoundecaoligosaccharide-decanoic Acid Amide [derivative 3]	190.0 µmol
Asparagine-linked Disialoundecaoligosaccharide-myristic Acid Amide [derivative 4]	95.0 µmol
Asparagine-linked Disialoundecaoligosaccharide-stearic Acid Amide [derivative 5]	47.5 µmol
